Source: the supplement of paper PMC8612539
Converted amounts (≈) assume the structure as drawn.

System: Escherichia coli
Assay: minimum inhibitory concentration (MIC)
Description: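 Broth microdilution MIC (Sensititre BOPO7F bovine plate, CLSI methods) of 19 antimicrobials against field isolates of P. multocida, M. haemolytica, H. somni (deep nasopharyngeal swabs) and E. coli, Enterococcus spp. (rectal swabs) from weaned dairy heifers. Incubation 16-24 h at 35 C. MIC is the lowest concentration preventing visible growth. Values with <= or > lie at the tested range limits. Trimethoprim-sulfamethoxazole is given as the trimethoprim component of a 1:19 mixture.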

CN1C[C@@H]2C[C@H]1CN2c1cc2c(cc1F)c(=O)c(C(=O)O)cn2C1CC1 [Danofloxacin]
Settings | minimum inhibitory concentration [mg/L]
isolate (source animal id): 8 | ≤ 0.12
isolate (source animal id): 9 | > 1
isolate (source animal id): 10 | ≤ 0.12
isolate (source animal id): 11 | ≤ 0.12
isolate (source animal id): 12 | > 1
isolate (source animal id): 13 | ≤ 0.12
isolate (source animal id): 14 | 0.5 (≈ 1.4 µM)
isolate (source animal id): 15 | ≤ 0.12
isolate (source animal id): 16 | ≤ 0.12
isolate (source animal id): 98 | ≤ 0.12
isolate (source animal id): 99 | ≤ 0.12
isolate (source animal id): 100 | ≤ 0.12
isolate (source animal id): 101 | ≤ 0.12
isolate (source animal id): 102 | ≤ 0.12
isolate (source animal id): 103 | ≤ 0.12
isolate (source animal id): 104 | ≤ 0.12
isolate (source animal id): 105 | ≤ 0.12
isolate (source animal id): 106 | > 1
isolate (source animal id): 107 | ≤ 0.12
isolate (source animal id): 108 | ≤ 0.12
isolate (source animal id): 109 | ≤ 0.12
isolate (source animal id): 110 | ≤ 0.12
isolate (source animal id): 111 | > 1
isolate (source animal id): 112 | ≤ 0.12
isolate (source animal id): 113 | > 1
isolate (source animal id): 114 | ≤ 0.12
isolate (source animal id): 115 | 1 (≈ 2.8 µM)
isolate (source animal id): 116 | > 1
isolate (source animal id): 117 | ≤ 0.12
isolate (source animal id): 118 | 0.5 (≈ 1.4 µM)
isolate (source animal id): 119 | > 1
isolate (source animal id): 120 | 1 (≈ 2.8 µM)
isolate (source animal id): 121 | ≤ 0.12
isolate (source animal id): 122 | ≤ 0.12
isolate (source animal id): 123 | ≤ 0.12
isolate (source animal id): 124 | > 1
isolate (source animal id): 125 | ≤ 0.12
isolate (source animal id): 126 | > 1
isolate (source animal id): 127 | ≤ 0.12
isolate (source animal id): 128 | ≤ 0.12
isolate (source animal id): 129 | 1 (≈ 2.8 µM)
isolate (source animal id): 130 | ≤ 0.12
isolate (source animal id): 131 | > 1
isolate (source animal id): 132 | 0.5 (≈ 1.4 µM)
isolate (source animal id): 133 | ≤ 0.12
isolate (source animal id): 134 | ≤ 0.12
isolate (source animal id): 135 | ≤ 0.12
isolate (source animal id): 136 | ≤ 0.12
isolate (source animal id): 137 | 1 (≈ 2.8 µM)
isolate (source animal id): 138 | > 1
isolate (source animal id): 139 | 0.25 (≈ 0.7 µM)
isolate (source animal id): 140 | ≤ 0.12
isolate (source animal id): 141 | ≤ 0.12
isolate (source animal id): 142 | ≤ 0.12
isolate (source animal id): 143 | 1 (≈ 2.8 µM)
isolate (source animal id): 144 | > 1
isolate (source animal id): 145 | ≤ 0.12
isolate (source animal id): 146 | 0.5 (≈ 1.4 µM)
isolate (source animal id): 147 | > 1
isolate (source animal id): 148 | 0.25 (≈ 0.7 µM)
isolate (source animal id): 149 | ≤ 0.12
isolate (source animal id): 150 | ≤ 0.12
isolate (source animal id): 151 | ≤ 0.12
isolate (source animal id): 152 | ≤ 0.12
isolate (source animal id): 153 | ≤ 0.12
isolate (source animal id): 154 | 0.5 (≈ 1.4 µM)
isolate (source animal id): 155 | ≤ 0.12
isolate (source animal id): 156 | 0.5 (≈ 1.4 µM)
isolate (source animal id): 157 | ≤ 0.12
isolate (source animal id): 158 | ≤ 0.12
isolate (source animal id): 159 | ≤ 0.12
isolate (source animal id): 160 | ≤ 0.12
isolate (source animal id): 161 | ≤ 0.12
isolate (source animal id): 162 | > 1
isolate (source animal id): 163 | ≤ 0.12
isolate (source animal id): 164 | ≤ 0.12
isolate (source animal id): 165 | ≤ 0.12
isolate (source animal id): 166 | ≤ 0.12
isolate (source animal id): 167 | ≤ 0.12
isolate (source animal id): 168 | ≤ 0.12
isolate (source animal id): 169 | ≤ 0.12
isolate (source animal id): 170 | ≤ 0.12
isolate (source animal id): 171 | ≤ 0.12
isolate (source animal id): 172 | ≤ 0.12
isolate (source animal id): 173 | ≤ 0.12
isolate (source animal id): 174 | ≤ 0.12
isolate (source animal id): 175 | ≤ 0.12
isolate (source animal id): 176 | ≤ 0.12
isolate (source animal id): 177 | ≤ 0.12
isolate (source animal id): 178 | ≤ 0.12
isolate (source animal id): 179 | ≤ 0.12
isolate (source animal id): 180 | ≤ 0.12
isolate (source animal id): 181 | ≤ 0.12
isolate (source animal id): 182 | ≤ 0.12
isolate (source animal id): 183 | ≤ 0.12
isolate (source animal id): 184 | ≤ 0.12
isolate (source animal id): 185 | ≤ 0.12
isolate (source animal id): 186 | ≤ 0.12
isolate (source animal id): 187 | ≤ 0.12
isolate (source animal id): 188 | > 1
